Assay results: patent publication US11633370B2, “Use of scavengers of reactive gamma-ketoaldehydes to extend cell lifespan and healthspan” (Vanderbilt University, priority 2016, dated 2023)

Experiments:
[1] = tested on: mice; details: administering SA in mice; cited from earlier work
[2] = tested on: VC199 SIR-2.1 mutants; experiment: mtDNA copy number by qPCR, VC199; assay type: in vivo, C. elegans; details: with age or with SA treatment
Source text: Mitochondria lie at the center of aging biology, playing crucial roles in energy production, carbon substrate metabolism, apoptosis regulation, and redox balance and signaling. Since sirtuins play a major role in regulating mitochondrial function, the present inventors next wanted to investigate whether SA was exerting any of its effects via protection of mitochondrial processes. To investigate SA's effects on mitochondrial respiration, the present inventors administered SA to WT N2 (FIG. 5A) and non-functional SIR-2.1 mutant worms (FIG. 5B) and measured oxygen consumption rate (OCR) in whole worms over several days. […] The present inventors also examined the effect of SA treatment on mitochondrial DNA (mtDNA) integrity.
Relative mitochondrial and nuclear copy number were measured by quantitative, real-time PCR [90]. Primers for NADH dehydrogenase unit 1 (nd1) and a 164 bp region of the cox-4 gene were used in determination of mtDNA copy number. The nd1 forward primer 5′-[…]-3′ and reverse primer 5′-[…]-3′. Cox-4 forward primer 5′-GCCGACTGGAAGAACTTGTC-3′ and reverse primer 5′-[…]-3′. […] Amplified products were detected with SYBR Green (iQ™ SYBR® Green Supermix, Bio-Rad) and fluorescent signal intensities were determined by CFX96 Touch™ Real-Time PCR Detection System (Bio-Rad) by software CFX Manager™ (version 3.1). […]

NCc1ccccc1O [SA, salicylamine]
development of angiotensin II-induce hypertension [1]: prevents | mtDNA copy number relative to nuclear DNA [2]: no significant difference
